Source: ChEMBL document CHEMBL1133151 (2000)

Columns and labels:
[1] = target: T1, Voltage-gated L-type calcium channel (Rattus norvegicus, UniProt P22002+Q02485+P27732); assay: Inhibition of L-type [Ca2+] channel (VSCC) in rat A7r5 vascular smooth muscle cells
[2] = target: T2, Voltage-dependent N-type calcium channel subunit alpha-1B (Homo sapiens, UniProt Q00975); assay: Inhibition of N-type calcium channel (VSCC) in IMR-32 at 10 uM
Target sequence in this assay (Q00975 whole entry): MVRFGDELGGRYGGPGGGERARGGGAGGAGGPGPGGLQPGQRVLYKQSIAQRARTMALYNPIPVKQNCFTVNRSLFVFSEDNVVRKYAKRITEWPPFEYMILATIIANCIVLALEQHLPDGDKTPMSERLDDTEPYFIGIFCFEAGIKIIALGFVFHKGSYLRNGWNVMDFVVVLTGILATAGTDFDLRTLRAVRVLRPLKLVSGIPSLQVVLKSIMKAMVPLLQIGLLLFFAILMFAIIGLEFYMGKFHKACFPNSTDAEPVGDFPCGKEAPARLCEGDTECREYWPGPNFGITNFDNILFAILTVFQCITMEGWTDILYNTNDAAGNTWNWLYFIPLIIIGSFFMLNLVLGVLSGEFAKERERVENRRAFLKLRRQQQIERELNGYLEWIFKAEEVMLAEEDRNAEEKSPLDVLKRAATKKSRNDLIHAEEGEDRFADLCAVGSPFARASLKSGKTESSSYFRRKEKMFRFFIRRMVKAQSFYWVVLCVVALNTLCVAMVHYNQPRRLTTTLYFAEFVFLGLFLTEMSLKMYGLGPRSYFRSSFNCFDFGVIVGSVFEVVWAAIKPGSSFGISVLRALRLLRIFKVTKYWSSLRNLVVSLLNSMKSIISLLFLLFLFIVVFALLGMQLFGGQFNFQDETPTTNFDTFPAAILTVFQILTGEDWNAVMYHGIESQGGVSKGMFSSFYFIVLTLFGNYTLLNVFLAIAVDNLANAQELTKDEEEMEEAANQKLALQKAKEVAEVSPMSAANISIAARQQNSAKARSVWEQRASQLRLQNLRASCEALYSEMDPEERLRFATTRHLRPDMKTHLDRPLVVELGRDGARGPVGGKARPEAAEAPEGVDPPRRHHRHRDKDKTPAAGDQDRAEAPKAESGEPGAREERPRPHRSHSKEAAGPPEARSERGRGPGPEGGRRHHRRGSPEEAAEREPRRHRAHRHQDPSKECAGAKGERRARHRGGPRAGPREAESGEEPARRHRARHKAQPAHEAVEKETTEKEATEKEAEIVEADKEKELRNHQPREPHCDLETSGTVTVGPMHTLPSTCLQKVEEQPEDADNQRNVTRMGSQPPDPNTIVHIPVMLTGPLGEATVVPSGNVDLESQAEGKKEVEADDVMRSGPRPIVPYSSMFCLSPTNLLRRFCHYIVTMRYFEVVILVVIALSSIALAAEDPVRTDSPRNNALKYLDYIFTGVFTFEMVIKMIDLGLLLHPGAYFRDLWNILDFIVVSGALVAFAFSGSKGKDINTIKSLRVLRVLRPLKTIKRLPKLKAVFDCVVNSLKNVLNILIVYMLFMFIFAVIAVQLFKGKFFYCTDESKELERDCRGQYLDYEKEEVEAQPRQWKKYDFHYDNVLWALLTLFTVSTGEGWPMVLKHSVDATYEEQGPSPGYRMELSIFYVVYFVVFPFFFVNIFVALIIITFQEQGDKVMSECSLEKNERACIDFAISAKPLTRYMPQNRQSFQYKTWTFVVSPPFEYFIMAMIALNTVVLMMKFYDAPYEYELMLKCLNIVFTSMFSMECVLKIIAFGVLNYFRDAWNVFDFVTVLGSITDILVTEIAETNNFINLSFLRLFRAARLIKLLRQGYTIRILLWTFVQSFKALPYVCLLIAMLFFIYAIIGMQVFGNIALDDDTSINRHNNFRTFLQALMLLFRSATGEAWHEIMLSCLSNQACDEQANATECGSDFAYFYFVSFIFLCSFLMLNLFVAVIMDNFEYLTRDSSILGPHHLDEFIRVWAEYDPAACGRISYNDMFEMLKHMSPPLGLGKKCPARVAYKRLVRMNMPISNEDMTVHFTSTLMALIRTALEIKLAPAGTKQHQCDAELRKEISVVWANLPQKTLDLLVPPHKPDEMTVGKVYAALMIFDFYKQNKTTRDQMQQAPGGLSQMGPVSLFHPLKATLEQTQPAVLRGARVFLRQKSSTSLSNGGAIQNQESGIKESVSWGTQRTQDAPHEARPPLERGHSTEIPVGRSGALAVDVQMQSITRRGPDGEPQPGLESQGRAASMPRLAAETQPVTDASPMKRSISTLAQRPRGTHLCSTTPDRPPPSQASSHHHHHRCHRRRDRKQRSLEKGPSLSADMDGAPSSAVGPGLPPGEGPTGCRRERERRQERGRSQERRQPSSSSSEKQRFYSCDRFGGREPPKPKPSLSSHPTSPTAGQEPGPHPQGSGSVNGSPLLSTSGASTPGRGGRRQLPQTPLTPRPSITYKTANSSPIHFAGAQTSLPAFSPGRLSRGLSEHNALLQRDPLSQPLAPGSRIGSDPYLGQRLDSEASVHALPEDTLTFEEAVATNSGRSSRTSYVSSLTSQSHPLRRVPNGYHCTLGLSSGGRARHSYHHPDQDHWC

[3] = target: T1, Voltage-gated L-type calcium channel; assay: Inhibition of L-type [Ca2+] channel (VSCC) in rat A7r5 vascular smooth muscle cells; remark: listed apart in the source
[4] = target: T2, Voltage-dependent N-type calcium channel subunit alpha-1B; assay: Inhibition of N-type calcium channel (VSCC) in IMR-32 at 10 uM
Target sequence in this assay (Q00975 whole entry, looked up): as the sequence (Q00975 whole entry) above

CC(C)Oc1cc(OCCc2ccc(C(=N)N)cc2)cc(OCc2ccccc2CCc2ccc(O)cc2)c1
IC50 [1]: 4.2 µM
IC50 [2]: 3.3 µM

CC(C)CCOc1cc(OCCCc2ccccc2OCCCc2ccc(O)cc2)cc(OCCc2ccc(C(=N)N)cc2)c1
Inhibition [3]: 69%
inhibition [4]: 19%

CC(C)Oc1cc(OCCc2ccc(C(=N)N)cc2)cc(OCc2ccccc2CCc2cccc(O)c2)c1
IC50 [1]: 3 µM
IC50 [2]: 2.7 µM
